According to patent US20260224588A1, “BENZODIAZEPINONE-DERIVED INHIBITORS OF EGFR AND HER2” (The Research Foundation for the State University of New York, priority 2023, published 2026):

Key:
Experiment in all cases: KINOMEscan
Type in all cases: binding
Settings in all cases: 1 μM of compound 4; read-out: POC
STK36 = target: T1, STK36 (Homo sapiens, UniProt Q9NRP7)
T1 construct: purchased Eurofins DiscoverX (KINOMEscan service)

MST3 = MST3 (Homo sapiens, UniProt Q9Y6E0)
[1] = target: T2, ABL1(F317I)-phosphorylated (Homo sapiens, UniProt P00519, F317I)
T2 construct: purchased Eurofins DiscoverX Corporation

PRKCI = PRKCI (Homo sapiens, UniProt P41743)
PIK3C2G = PIK3C2G (Homo sapiens, UniProt O75747)
DRAK2 = DRAK2 (Homo sapiens, UniProt O94768)
PAK7 = target: T3, PAK7 (Homo sapiens, UniProt Q9P286)
T3 construct: purchased Eurofins DiscoverX Corporation (KINOMEscan)
T3 sequence (Q9P286 whole entry): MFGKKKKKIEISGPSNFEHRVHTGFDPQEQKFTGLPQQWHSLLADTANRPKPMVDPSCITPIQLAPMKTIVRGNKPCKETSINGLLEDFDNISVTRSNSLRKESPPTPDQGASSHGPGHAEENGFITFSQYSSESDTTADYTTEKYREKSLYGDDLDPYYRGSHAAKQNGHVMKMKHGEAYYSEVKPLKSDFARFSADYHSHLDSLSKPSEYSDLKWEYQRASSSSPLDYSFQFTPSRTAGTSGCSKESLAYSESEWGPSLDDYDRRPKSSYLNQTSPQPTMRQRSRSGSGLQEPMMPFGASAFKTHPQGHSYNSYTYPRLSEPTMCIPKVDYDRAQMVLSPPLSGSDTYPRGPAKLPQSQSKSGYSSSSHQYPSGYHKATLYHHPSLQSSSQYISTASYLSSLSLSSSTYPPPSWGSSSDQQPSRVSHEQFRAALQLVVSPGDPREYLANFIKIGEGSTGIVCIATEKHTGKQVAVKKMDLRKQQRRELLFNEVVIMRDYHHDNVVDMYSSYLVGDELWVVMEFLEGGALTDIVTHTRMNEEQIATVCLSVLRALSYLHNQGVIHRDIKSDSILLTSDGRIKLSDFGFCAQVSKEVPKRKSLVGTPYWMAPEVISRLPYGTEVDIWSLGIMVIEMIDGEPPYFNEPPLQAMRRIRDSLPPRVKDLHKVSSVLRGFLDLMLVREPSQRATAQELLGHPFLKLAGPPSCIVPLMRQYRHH

KIT = KIT (Homo sapiens, UniProt P10721)
[2] = target: T4, ABL1(H396P)-phosphorylated (Homo sapiens, UniProt P00519, H396P)
T4 construct: purchased Eurofins DiscoverX Corporation

DCAMKL3 = DCAMKL3 (Homo sapiens, UniProt Q9C098)
TAOK1 = target: T5, TAOK1 (Homo sapiens, UniProt Q7L7X3)
T5 construct: purchased Eurofins DiscoverX Corporation
T5 sequence (Q7L7X3 whole entry): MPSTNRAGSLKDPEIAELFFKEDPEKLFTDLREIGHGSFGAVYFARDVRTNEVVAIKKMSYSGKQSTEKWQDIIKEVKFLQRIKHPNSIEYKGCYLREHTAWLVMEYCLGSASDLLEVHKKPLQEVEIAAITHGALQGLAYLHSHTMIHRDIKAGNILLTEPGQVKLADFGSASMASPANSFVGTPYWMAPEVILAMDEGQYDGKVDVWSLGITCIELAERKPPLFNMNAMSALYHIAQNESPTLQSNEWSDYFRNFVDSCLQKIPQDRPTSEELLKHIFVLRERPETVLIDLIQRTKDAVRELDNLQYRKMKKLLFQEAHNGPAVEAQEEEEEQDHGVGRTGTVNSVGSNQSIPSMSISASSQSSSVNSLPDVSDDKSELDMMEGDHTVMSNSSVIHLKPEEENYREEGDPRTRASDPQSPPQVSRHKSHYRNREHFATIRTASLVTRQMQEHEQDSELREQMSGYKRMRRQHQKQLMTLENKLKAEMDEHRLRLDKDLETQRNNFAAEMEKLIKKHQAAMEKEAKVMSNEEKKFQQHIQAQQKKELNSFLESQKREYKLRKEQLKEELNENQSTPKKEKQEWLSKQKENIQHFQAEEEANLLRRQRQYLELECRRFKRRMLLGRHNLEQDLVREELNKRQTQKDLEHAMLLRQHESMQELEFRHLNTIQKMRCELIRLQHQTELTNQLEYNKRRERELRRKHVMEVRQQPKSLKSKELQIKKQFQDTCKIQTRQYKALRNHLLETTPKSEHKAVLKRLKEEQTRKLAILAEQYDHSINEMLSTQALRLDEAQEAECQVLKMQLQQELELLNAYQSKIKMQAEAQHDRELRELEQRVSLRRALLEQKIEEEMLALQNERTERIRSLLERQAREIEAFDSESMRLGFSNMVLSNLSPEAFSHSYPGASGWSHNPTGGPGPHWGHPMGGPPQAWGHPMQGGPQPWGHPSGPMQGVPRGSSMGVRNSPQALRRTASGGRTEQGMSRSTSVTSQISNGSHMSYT

IGF1R = IGF1R (Homo sapiens, UniProt P08069)
PKMYT1 = PKMYT1 (Homo sapiens, UniProt Q99640)
MLCK = MLCK (Homo sapiens, UniProt Q32MK0)
BRAF(V600E) = BRAF(V600E) (Homo sapiens, UniProt P15056, V600E)
ULK2 = target: T6, ULK2 (Homo sapiens, UniProt Q8IYT8)
T6 construct: purchased Eurofins DiscoverX

JNK3 = JNK3 (Homo sapiens, UniProt P53779)
MAP3K2 = MAP3K2 (Homo sapiens, UniProt Q9Y2U5)
p38-gamma = target: T7, p38-gamma (Homo sapiens, UniProt P53778)
T7 construct: purchased Eurofins DiscoverX Corporation (KINOMEscan)
T7 sequence (P53778 whole entry): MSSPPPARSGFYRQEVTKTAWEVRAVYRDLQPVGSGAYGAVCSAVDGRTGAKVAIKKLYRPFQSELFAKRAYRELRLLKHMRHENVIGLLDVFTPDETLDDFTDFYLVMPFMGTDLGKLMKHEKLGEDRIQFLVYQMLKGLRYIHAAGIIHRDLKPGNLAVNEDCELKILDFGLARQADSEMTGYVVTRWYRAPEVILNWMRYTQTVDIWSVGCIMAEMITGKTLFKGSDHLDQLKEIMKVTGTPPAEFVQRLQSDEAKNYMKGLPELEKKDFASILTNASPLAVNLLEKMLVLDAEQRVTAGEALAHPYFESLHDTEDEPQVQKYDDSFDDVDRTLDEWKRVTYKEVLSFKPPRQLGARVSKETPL

NEK7 = target: T8, NEK7 (Homo sapiens, UniProt Q8TDX7)
T8 construct: purchased Eurofins DiscoverX Corporation (KINOMEscan)

IKK-beta = IKK-beta (Homo sapiens, UniProt O14920)
PAK1 = target: T9, PAK1 (Homo sapiens, UniProt Q13153)
T9 construct: purchased Eurofins DiscoverX Corporation (KINOMEscan)
T9 sequence (Q13153 whole entry): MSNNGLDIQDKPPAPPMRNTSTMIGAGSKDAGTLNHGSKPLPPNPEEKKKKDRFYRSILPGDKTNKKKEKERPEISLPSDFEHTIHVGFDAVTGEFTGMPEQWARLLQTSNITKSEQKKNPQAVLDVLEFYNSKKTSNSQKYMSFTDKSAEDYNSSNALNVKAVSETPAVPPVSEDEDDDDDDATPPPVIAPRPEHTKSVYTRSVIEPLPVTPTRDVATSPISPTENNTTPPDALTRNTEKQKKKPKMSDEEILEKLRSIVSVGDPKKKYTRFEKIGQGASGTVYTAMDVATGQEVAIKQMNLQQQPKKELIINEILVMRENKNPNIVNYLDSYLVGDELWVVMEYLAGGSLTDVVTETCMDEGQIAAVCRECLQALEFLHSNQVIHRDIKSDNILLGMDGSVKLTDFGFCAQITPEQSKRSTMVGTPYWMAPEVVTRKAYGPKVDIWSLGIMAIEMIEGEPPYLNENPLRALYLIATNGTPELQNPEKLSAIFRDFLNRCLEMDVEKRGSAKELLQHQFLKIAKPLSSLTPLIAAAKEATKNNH

MARK1 = MARK1 (Homo sapiens, UniProt Q9P0L2)
NEK9 = target: T10, NEK9 (Homo sapiens, UniProt Q8TD19)
T10 construct: purchased Eurofins DiscoverX Corporation (KINOMEscan)
T10 sequence (Q8TD19 whole entry): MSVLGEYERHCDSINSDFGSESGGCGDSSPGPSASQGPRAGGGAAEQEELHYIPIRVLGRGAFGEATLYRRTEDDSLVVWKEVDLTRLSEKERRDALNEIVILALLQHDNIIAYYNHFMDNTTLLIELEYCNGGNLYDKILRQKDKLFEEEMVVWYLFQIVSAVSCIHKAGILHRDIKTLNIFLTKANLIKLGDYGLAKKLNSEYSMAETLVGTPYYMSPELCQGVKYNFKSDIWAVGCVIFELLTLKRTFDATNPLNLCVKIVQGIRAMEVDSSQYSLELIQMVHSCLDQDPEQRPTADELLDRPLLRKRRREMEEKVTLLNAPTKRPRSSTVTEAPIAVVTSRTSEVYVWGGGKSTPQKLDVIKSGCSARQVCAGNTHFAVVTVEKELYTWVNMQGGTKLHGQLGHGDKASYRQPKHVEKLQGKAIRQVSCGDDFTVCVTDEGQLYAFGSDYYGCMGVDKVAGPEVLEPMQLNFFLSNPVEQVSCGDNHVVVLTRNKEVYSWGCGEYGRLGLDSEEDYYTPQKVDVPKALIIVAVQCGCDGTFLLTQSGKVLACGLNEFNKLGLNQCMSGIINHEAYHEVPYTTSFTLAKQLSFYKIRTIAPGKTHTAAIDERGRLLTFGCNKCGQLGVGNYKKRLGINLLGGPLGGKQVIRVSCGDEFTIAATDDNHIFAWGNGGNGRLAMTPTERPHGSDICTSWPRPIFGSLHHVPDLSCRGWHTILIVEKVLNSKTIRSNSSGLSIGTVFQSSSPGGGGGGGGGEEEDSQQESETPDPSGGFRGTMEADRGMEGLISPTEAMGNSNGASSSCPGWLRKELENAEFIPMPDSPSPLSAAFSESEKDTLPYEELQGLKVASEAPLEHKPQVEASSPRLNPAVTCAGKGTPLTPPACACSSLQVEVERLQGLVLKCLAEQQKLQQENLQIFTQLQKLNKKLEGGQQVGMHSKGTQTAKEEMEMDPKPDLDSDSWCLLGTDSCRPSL

PCTK2 = target: T11, PCTK2 (Homo sapiens, UniProt Q00537)
T11 construct: purchased Eurofins DiscoverX Corporation (KINOMEscan)

PIK3CA = PIK3CA (Homo sapiens, UniProt P42336)
NLK = target: T12, NLK (Homo sapiens, UniProt Q9UBE8)
T12 construct: purchased Eurofins DiscoverX Corporation (KINOMEscan)
T12 sequence (Q9UBE8 whole entry): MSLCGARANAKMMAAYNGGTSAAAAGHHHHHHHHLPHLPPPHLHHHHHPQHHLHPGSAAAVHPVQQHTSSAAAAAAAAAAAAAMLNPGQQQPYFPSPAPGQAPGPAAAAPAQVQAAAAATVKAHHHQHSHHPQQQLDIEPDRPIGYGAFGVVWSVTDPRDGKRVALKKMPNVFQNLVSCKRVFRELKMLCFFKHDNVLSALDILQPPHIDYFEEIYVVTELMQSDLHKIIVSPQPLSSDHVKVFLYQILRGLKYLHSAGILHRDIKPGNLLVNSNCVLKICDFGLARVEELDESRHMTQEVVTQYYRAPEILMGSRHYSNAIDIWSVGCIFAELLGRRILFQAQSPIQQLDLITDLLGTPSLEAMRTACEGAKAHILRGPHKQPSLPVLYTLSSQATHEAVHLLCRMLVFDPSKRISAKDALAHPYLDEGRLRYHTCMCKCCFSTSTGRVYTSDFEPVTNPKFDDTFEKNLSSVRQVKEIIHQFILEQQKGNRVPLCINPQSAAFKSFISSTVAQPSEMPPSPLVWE

PIK3CA(E545A) = PIK3CA(E545A) (Homo sapiens, UniProt P42336, E545A)
GCN2(Kin.Dom.2 + S808G) = target: T13, GCN2(Kin.Dom.2 + S808G) (Homo sapiens, UniProt Q9P2K8, S808G)
T13 construct: GCN2(Kin.Dom.2 + S808G); purchased Eurofins DiscoverX Corporation

ERK5 = target: T14, ERK5 (Homo sapiens, UniProt Q13164)
T14 construct: purchased Eurofins DiscoverX Corporation

SYK = target: T15, SYK (Homo sapiens, UniProt P43405)
T15 construct: purchased Eurofins DiscoverX Corporation

SRPK1 = target: T16, SRPK1 (Homo sapiens, UniProt Q96SB4)
T16 construct: purchased Eurofins DiscoverX (KINOMEscan service)

RIPK5 = target: T17, RIPK5 (Homo sapiens, UniProt Q6XUX3)
T17 construct: purchased Eurofins DiscoverX Corporation (KINOMEscan screening service)

LIMK2 = LIMK2 (Homo sapiens, UniProt P53671)
SGK2 = target: T18, SGK2 (Homo sapiens, UniProt Q9HBY8)
T18 construct: purchased Eurofins DiscoverX (KINOMEscan service)

PRKD3 = PRKD3 (Homo sapiens, UniProt O94806)
Sequence of PRKD3 (O94806 whole entry): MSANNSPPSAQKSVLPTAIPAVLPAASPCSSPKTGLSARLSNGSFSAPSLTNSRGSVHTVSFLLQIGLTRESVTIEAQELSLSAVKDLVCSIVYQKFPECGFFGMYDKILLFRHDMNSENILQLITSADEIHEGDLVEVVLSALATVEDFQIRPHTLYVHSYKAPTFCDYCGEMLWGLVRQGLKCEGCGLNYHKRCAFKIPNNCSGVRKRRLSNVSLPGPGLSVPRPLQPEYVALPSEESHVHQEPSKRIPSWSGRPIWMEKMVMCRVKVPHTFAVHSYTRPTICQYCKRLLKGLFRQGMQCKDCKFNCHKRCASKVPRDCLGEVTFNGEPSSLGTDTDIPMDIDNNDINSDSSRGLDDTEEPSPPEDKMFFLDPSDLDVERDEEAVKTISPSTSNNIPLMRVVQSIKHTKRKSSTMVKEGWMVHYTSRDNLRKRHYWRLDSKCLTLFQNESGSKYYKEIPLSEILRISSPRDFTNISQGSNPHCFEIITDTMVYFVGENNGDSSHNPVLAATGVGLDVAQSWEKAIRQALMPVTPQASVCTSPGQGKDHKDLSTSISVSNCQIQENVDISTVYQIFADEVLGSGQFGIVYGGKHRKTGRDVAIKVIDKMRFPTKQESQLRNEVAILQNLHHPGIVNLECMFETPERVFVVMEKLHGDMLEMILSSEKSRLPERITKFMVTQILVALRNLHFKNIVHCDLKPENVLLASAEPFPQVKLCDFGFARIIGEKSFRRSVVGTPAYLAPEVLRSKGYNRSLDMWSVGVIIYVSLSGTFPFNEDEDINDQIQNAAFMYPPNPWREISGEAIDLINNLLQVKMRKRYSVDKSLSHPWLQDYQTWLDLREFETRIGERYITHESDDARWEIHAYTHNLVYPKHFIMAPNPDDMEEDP

WNK2 = target: T19, WNK2 (Homo sapiens, UniProt Q9Y3S1)
T19 construct: purchased Eurofins DiscoverX

FGFR1 = target: T20, FGFR1 (Homo sapiens, UniProt P11362)
T20 construct: purchased Eurofins DiscoverX Corporation

PLK3 = PLK3 (Homo sapiens, UniProt Q9H4B4)

Q: With `C=CC(=O)Nc1ccc(OC)c(Nc2cc(-c3[nH]c(CC)nc3-c3cccc(NC(=O)c4cccc5c4NC(=O)c4ccccc4N5)c3)ccn2)c1` [Compound 4, N-(3-(5-(2-((5-Acrylamido-2-methoxyphenyl)amino)pyridin-4-yl)-2-ethyl-1H-imidazol-4-yl)phenyl)-11-oxo-10,11-dihydro-5H-dibenzo[b,e][1,4]diazepine-9-carboxamide] as the molecule, how does the remaining binding at 1 µM (STK36) read?
A: Its remaining binding at 1 µM is 30%.

Q: And the remaining binding at 1 µM (MST3)?
A: Its remaining binding at 1 µM is 73%.

Q: And the remaining binding at 1 µM [1]?
A: Its remaining binding at 1 µM is 84%.

Q: And the remaining binding at 1 µM (PRKCI)?
A: The remaining binding at 1 µM was 100%.

Q: And the remaining binding at 1 µM (PIK3C2G)?
A: Its remaining binding at 1 µM is 50%.

Q: And the remaining binding at 1 µM (DRAK2)?
A: Its remaining binding at 1 µM is 94%.

Q: What about the remaining binding at 1 µM (PAK7) of the same molecule?
A: The remaining binding at 1 µM was 77%.

Q: What about the remaining binding at 1 µM (KIT) of the same molecule?
A: The remaining binding at 1 µM was 100%.

Q: What about the remaining binding at 1 µM [2] of the same molecule?
A: The remaining binding at 1 µM was 74%.

Q: And the remaining binding at 1 µM (DCAMKL3)?
A: The remaining binding at 1 µM was 86%.

Q: What about the remaining binding at 1 µM (TAOK1) of the same molecule?
A: Its remaining binding at 1 µM is 100%.

Q: And the remaining binding at 1 µM (IGF1R)?
A: The remaining binding at 1 µM was 90%.

Q: What about the remaining binding at 1 µM (PKMYT1) of the same molecule?
A: The remaining binding at 1 µM was 99%.

Q: And the remaining binding at 1 µM (MLCK)?
A: Its remaining binding at 1 µM is 86%.

Q: What about the remaining binding at 1 µM (BRAF(V600E)) of the same molecule?
A: Its remaining binding at 1 µM is 100%.

Q: And the remaining binding at 1 µM (ULK2)?
A: Its remaining binding at 1 µM is 80%.

Q: And the remaining binding at 1 µM (JNK3)?
A: The remaining binding at 1 µM was 53%.

Q: What about the remaining binding at 1 µM (MAP3K2) of the same molecule?
A: Its remaining binding at 1 µM is 100%.

Q: And the remaining binding at 1 µM (p38-gamma)?
A: The remaining binding at 1 µM was 100%.

Q: And the remaining binding at 1 µM (NEK7)?
A: The remaining binding at 1 µM was 86%.

Q: What about the remaining binding at 1 µM (IKK-beta) of the same molecule?
A: The remaining binding at 1 µM was 88%.

Q: And the remaining binding at 1 µM (PAK1)?
A: Its remaining binding at 1 µM is 100%.

Q: What about the remaining binding at 1 µM (MARK1) of the same molecule?
A: The remaining binding at 1 µM was 92%.

Q: What about the remaining binding at 1 µM (NEK9) of the same molecule?
A: The remaining binding at 1 µM was 83%.

Q: What about the remaining binding at 1 µM (PCTK2) of the same molecule?
A: The remaining binding at 1 µM was 100%.

Q: And the remaining binding at 1 µM (PIK3CA)?
A: Its remaining binding at 1 µM is 70%.

Q: And the remaining binding at 1 µM (NLK)?
A: Its remaining binding at 1 µM is 48%.

Q: What about the remaining binding at 1 µM (PIK3CA(E545A)) of the same molecule?
A: The remaining binding at 1 µM was 100%.

Q: What about the remaining binding at 1 µM (GCN2(Kin.Dom.2 + S808G)) of the same molecule?
A: The remaining binding at 1 µM was 100%.

Q: What about the remaining binding at 1 µM (ERK5) of the same molecule?
A: The remaining binding at 1 µM was 100%.

Q: What about the remaining binding at 1 µM (SYK) of the same molecule?
A: The remaining binding at 1 µM was 63%.

Q: And the remaining binding at 1 µM (SRPK1)?
A: Its remaining binding at 1 µM is 100%.

Q: What about the remaining binding at 1 µM (RIPK5) of the same molecule?
A: Its remaining binding at 1 µM is 79%.

Q: And the remaining binding at 1 µM (LIMK2)?
A: The remaining binding at 1 µM was 93%.

Q: What about the remaining binding at 1 µM (SGK2) of the same molecule?
A: The remaining binding at 1 µM was 83%.

Q: What about the remaining binding at 1 µM (PRKD3) of the same molecule?
A: The remaining binding at 1 µM was 67%.

Q: And the remaining binding at 1 µM (WNK2)?
A: The remaining binding at 1 µM was 62%.

Q: What about the remaining binding at 1 µM (FGFR1) of the same molecule?
A: The remaining binding at 1 µM was 86%.

Q: And the remaining binding at 1 µM (PLK3)?
A: The remaining binding at 1 µM was 87%.
